Measurements taken from patent publication US7745222B2, “Amyloid binding assays” (priority 2006, dated 2010).

Key:
[1] = system: A-beta fibrils (human A-beta 1-40); type: binding; settings: A-beta fibrils on rat brain section; fluorescence imaging; FIG. 4-5
Description: (§1) In one embodiment, sections of Sprauge-Dawley naïve rat brain (Taconic) 10 microns in thickness were fixed with 10% formalin in phosphate buffered saline (PBS).
The clear film of A-beta 1-40 was diluted with distilled water to achieve a 6-mg/mL concentration. […] The clear solution was diluted to 1 mg/mL with PBS, pH 7.4 to obtain a final concentration of 1 mg/mL A-beta 1-40 then incubated at 37° C. on an orbital shaker at 200 RPM for 4 days.
(§2) The slides were washed with PBS three times then incubated with blocking buffer consisting of 10% normal goat serum in 3% BSA in PBS.
(§3) For the sandwich assay approach 100 μL of 1/250th dilution of anti-A-beta antibody, (Signet) was applied to the tissue. The tissue was then incubated for 1.5 hours at room temperature, or in an alternative approach, for 45 minutes at 37° C. Next, a 1/100th dilution of the secondary antibody Alexa Flour 594-goat antimouse IgG (Molecular Probes) was prepared in PBS and 100 μl was applied to the slides, which were then incubated at room temperature for 1.5 hours. […]
(§4) Microscopic examination was performed using a Leica (Leica Microsystems Inc, Bannockburn Ill.) wide-field fluorescence microscope.
(§5) The fluorescent images were quantified by calculating the sum of pixel intensity of the immunofluorescence for each amyloid species. […]

[2] = system: soluble oligomeric A-beta (human beta-amyloid 1-42); type: binding; settings: for binding to soluble oligomeric A-beta: A-beta species on Sprague-Dawley naive rat brain section (hippocampus), fluorescence imaging, FIG. 2-3
Description: as §1
Soluble A-beta oligomer formation. 1 mg of human beta-amyloid 1-42 (H-5642, Bachem) and 500 uL of 1,1,1,3,3,3 hexafluoro-2-propanol (HFIP) (Aldrich) were chilled in separate bottles on ice for 30 minutes. Cold beta-amyloid 1-42 was solubilized with cold HFIP. The mixture was incubated for 1 hr at room temperature until it turned clear. The resulting solution was then dried to a film under vacuum. The film was dissolved again in cold HFIP and incubated another 1 hr at room temperature. The resulting solution was separated into aliquots in several microcentrifuge tubes. HFIP was removed under vacuum, and the films were stored at −20° C. until use. To prepare soluble oligomer, the film was dissolved in appropriate amount of dry DMSO (Sigma), and Ham's F12 media (Biosource) or PBS (Sigma, D8537) was added and incubated at 4° C. for 24 hours (final concentration of 200 uM or 0.9 mg/mL beta-amyloid in 2% DMSO).
as §2, §3, §4, §5

O=Cc1ccc(-c2oc3ccccc3c2CO)o1 [68B-3]
binding to A-beta fibrils [1]: bound | binding to soluble oligomeric A-beta [2]: bound | preferential binding, soluble A-beta relative to insoluble A-beta ([2]; stated as validated property of the binder): preferential binder for soluble A-beta

Cc1ccc2c(c1)sc(-c1ccc(N(C)C)cc1)[n+]2C.[Cl-] [Thioflavin T]
binding to A-beta fibrils [1]: bound | binding to soluble oligomeric A-beta [2]: bound
